{"source": "PubChem BioAssay AID1982", "about": "(Sanford-Burnham Center for Chemical Genomics, 2009)", "assay_in_all_cases": "kinase panel binding selectivity, selectivity assay, biochemical, KINOMEscan (AID 1982)", "key": {"TLK1": {"test_system": "TLK1", "conditions": "KINOMEscan 353-kinase binding panel, qPCR, at 10 µM, hits give low values"}, "PIK3C2B": {"test_system": "PIK3C2B", "conditions": "KINOMEscan 353-kinase binding panel, qPCR, at 10 µM, hits give low values"}, "[1]": {"target": "Serine/threonine-protein kinase PAK 1 (Homo sapiens) (UniProt Q13153)", "conditions": "KINOMEscan 353-kinase binding panel, qPCR; PAK1; at 10 µM; hits give low values"}, "EPHA1": {"test_system": "EPHA1", "conditions": "KINOMEscan 353-kinase binding panel, qPCR, at 10 µM, hits give low values"}, "[2]": {"target": "Proto-oncogene tyrosine-protein kinase Src (Homo sapiens) (UniProt P12931)", "conditions": "KINOMEscan 353-kinase binding panel, qPCR, at 10 µM, hits give low values"}, "NEK9": {"test_system": "NEK9", "conditions": "KINOMEscan 353-kinase binding panel, qPCR, at 10 µM, hits give low values"}, "MST4": {"test_system": "MST4", "conditions": "KINOMEscan 353-kinase binding panel, qPCR, at 10 µM, hits give low values"}, "[3]": {"target": "Maternal embryonic leucine zipper kinase (Homo sapiens) (UniProt Q14680)", "conditions": "KINOMEscan 353-kinase binding panel, qPCR; MELK; at 10 µM; hits give low values"}, "DMPK": {"test_system": "DMPK", "conditions": "KINOMEscan 353-kinase binding panel, qPCR, at 10 µM, hits give low values"}, "[4]": {"target": "Cyclin-dependent kinase 7 (Homo sapiens) (UniProt P50613)", "sequence (P50613 whole entry, looked up)": "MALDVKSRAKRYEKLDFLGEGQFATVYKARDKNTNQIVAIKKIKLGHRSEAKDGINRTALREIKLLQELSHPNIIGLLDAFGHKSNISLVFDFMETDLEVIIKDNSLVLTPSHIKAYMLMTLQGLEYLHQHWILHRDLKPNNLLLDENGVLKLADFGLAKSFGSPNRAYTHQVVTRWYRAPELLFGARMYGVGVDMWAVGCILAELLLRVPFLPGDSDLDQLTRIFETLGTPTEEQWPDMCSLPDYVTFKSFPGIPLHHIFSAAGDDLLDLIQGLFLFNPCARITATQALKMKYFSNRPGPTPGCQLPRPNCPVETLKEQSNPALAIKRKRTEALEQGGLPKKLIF", "conditions": "KINOMEscan 353-kinase binding panel, qPCR; CDK7; at 10 µM; hits give low values"}, "[5]": {"target": "Calcium/calmodulin-dependent protein kinase type II subunit gamma (Homo sapiens) (UniProt Q13555)", "conditions": "KINOMEscan 353-kinase binding panel, qPCR; CAMK2G; at 10 µM; hits give low values"}, "[6]": {"target": "Dual specificity protein kinase CLK1 (Homo sapiens) (UniProt P49759)", "sequence (P49759 whole entry, looked up)": "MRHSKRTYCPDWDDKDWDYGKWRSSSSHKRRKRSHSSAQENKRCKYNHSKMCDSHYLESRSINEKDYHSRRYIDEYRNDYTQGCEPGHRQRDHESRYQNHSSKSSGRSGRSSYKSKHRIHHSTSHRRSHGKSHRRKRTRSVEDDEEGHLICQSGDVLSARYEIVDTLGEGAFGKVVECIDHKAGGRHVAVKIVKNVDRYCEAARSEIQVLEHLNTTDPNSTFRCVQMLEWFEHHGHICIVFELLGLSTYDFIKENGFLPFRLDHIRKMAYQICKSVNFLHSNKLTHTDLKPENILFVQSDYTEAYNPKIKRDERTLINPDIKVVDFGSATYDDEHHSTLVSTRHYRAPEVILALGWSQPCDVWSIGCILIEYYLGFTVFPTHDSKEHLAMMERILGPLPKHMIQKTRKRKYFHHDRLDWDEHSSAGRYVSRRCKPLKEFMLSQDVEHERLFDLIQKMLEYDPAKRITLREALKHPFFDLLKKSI", "conditions": "KINOMEscan 353-kinase binding panel, qPCR, at 10 µM, hits give low values"}, "ERK4": {"test_system": "ERK4", "conditions": "KINOMEscan 353-kinase binding panel, qPCR, at 10 µM, hits give low values"}, "[7]": {"target": "Fibroblast growth factor receptor 1 (Homo sapiens) (UniProt P11362)", "conditions": "KINOMEscan 353-kinase binding panel, qPCR; FGFR1; at 10 µM; hits give low values"}, "[8]": {"target": "Activated CDC42 kinase 1 (Homo sapiens) (UniProt Q07912)", "conditions": "KINOMEscan 353-kinase binding panel, qPCR; TNK2; at 10 µM; hits give low values"}, "[9]": {"target": "Insulin-like growth factor 1 receptor (Homo sapiens) (UniProt P08069)", "conditions": "KINOMEscan 353-kinase binding panel, qPCR; IGF1R; at 10 µM; hits give low values"}, "EPHA4": {"test_system": "EPHA4", "conditions": "KINOMEscan 353-kinase binding panel, qPCR, at 10 µM, hits give low values"}, "[10]": {"target": "Tyrosine-protein kinase Fer (Homo sapiens) (UniProt P16591)", "sequence (P16591 whole entry, looked up)": "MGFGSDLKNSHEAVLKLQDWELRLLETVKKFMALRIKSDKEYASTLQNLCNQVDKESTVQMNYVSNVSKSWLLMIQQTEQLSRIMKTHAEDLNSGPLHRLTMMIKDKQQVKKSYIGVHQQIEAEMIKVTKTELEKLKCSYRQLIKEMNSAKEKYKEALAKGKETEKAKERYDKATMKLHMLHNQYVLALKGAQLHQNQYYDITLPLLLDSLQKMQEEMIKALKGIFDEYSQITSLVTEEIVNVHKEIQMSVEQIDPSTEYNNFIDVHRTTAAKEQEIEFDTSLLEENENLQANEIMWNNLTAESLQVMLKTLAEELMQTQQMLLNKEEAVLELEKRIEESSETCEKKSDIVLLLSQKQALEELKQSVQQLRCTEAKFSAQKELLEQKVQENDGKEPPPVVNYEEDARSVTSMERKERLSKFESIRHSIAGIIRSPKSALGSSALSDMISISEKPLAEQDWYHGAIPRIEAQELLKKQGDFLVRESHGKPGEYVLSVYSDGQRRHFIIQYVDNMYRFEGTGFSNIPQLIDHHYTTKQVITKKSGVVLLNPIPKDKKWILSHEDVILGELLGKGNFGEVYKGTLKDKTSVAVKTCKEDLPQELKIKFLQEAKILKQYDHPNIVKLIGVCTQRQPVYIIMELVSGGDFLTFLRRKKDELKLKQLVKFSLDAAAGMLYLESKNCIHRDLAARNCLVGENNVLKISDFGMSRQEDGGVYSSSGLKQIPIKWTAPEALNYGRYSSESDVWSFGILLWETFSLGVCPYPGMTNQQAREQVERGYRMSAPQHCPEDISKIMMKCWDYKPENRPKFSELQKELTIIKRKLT", "conditions": "KINOMEscan 353-kinase binding panel, qPCR, at 10 µM, hits give low values"}, "ACVRL1": {"test_system": "ACVRL1", "conditions": "KINOMEscan 353-kinase binding panel, qPCR, at 10 µM, hits give low values"}, "NEK1": {"test_system": "NEK1", "conditions": "KINOMEscan 353-kinase binding panel, qPCR, at 10 µM, hits give low values"}, "PIK3CD": {"test_system": "PIK3CD", "conditions": "KINOMEscan 353-kinase binding panel, qPCR, at 10 µM, hits give low values"}, "[11]": {"target": "Serine/threonine-protein kinase MARK2 (Homo sapiens) (UniProt Q7KZI7)", "sequence (Q7KZI7 whole entry, looked up)": "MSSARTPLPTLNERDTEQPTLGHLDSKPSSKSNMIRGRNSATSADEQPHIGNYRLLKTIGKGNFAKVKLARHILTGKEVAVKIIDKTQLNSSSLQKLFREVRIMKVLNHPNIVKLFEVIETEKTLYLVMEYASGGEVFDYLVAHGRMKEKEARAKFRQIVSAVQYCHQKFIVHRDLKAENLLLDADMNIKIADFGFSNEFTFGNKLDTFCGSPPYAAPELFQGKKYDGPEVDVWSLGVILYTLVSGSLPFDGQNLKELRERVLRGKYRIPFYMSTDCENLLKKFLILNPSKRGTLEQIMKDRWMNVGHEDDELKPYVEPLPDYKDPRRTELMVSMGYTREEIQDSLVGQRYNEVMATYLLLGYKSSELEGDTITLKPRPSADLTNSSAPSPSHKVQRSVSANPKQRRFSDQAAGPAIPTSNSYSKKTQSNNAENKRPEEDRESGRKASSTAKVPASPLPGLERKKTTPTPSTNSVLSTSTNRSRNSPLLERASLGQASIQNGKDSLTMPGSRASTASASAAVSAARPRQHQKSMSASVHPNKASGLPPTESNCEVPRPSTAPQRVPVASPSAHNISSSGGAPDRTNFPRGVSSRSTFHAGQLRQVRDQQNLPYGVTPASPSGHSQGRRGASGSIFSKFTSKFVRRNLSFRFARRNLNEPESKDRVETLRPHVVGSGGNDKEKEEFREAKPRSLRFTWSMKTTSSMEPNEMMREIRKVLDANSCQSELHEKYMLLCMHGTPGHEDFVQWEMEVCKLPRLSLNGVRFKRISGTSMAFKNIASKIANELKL", "conditions": "KINOMEscan 353-kinase binding panel, qPCR, at 10 µM, hits give low values"}, "[12]": {"target": "Platelet-derived growth factor receptor beta (Homo sapiens) (UniProt P09619)", "conditions": "KINOMEscan 353-kinase binding panel, qPCR; PDGFRB; at 10 µM; hits give low values"}, "[13]": {"target": "Tyrosine-protein kinase JAK2 (Homo sapiens) (UniProt O60674)", "conditions": "KINOMEscan 353-kinase binding panel, qPCR; JAK2(Kin.Dom.2); at 10 µM; hits give low values"}, "MST1": {"test_system": "MST1", "conditions": "KINOMEscan 353-kinase binding panel, qPCR, at 10 µM, hits give low values"}, "[14]": {"target": "Aurora kinase B (Homo sapiens) (UniProt Q96GD4)", "sequence (Q96GD4 whole entry, looked up)": "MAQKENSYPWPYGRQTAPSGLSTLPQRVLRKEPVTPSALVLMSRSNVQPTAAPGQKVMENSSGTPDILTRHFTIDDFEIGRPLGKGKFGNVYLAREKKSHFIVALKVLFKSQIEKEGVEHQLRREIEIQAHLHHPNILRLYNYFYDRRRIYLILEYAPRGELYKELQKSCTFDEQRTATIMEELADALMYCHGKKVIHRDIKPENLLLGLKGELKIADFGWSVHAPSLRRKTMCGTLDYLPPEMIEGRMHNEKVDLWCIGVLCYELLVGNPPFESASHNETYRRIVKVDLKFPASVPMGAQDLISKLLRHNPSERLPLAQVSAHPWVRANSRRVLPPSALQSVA", "conditions": "KINOMEscan 353-kinase binding panel, qPCR; AURKB; at 10 µM; hits give low values"}, "[15]": {"target": "Calcium/calmodulin-dependent protein kinase kinase 2 (Homo sapiens) (UniProt Q96RR4)", "sequence (Q96RR4 whole entry, looked up)": "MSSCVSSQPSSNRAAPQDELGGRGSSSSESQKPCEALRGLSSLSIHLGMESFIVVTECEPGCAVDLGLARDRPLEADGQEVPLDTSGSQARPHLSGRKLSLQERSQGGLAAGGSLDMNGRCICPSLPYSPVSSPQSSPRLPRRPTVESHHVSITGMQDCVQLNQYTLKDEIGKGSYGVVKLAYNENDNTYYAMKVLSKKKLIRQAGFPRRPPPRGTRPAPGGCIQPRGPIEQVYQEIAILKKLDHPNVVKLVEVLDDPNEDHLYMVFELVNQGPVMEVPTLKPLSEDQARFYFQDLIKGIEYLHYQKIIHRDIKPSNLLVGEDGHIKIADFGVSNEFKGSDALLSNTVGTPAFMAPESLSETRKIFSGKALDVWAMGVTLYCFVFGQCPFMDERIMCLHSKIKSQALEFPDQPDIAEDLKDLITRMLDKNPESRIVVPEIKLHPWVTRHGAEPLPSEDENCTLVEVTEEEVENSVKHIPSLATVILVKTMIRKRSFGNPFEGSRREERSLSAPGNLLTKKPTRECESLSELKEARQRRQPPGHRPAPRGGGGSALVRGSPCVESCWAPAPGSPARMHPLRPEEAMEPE", "conditions": "KINOMEscan 353-kinase binding panel, qPCR; CAMKK2; at 10 µM; hits give low values"}, "[16]": {"target": "Calcium/calmodulin-dependent protein kinase type II subunit beta (Homo sapiens) (UniProt Q13554)", "sequence (Q13554 whole entry, looked up)": "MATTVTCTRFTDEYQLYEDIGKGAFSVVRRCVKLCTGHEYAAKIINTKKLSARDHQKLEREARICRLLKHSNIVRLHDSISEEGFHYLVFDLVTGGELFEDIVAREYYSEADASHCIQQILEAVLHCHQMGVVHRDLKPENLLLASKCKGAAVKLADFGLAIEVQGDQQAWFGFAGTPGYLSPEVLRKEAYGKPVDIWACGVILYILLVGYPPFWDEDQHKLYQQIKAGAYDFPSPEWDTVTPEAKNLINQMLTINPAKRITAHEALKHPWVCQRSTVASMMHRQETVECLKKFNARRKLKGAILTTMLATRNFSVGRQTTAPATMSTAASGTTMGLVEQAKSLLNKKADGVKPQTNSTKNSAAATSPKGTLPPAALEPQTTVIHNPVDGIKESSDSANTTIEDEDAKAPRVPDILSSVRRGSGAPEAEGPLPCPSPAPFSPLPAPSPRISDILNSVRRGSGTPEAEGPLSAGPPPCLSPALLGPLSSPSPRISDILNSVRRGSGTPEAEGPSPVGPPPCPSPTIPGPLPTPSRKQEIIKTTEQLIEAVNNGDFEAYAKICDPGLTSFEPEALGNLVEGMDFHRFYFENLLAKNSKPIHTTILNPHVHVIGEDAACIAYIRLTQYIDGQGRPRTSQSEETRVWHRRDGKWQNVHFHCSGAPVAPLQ", "conditions": "KINOMEscan 353-kinase binding panel, qPCR; CAMK2B; at 10 µM; hits give low values"}, "[17]": {"target": "Leukocyte tyrosine kinase receptor (Homo sapiens) (UniProt P29376)", "conditions": "KINOMEscan 353-kinase binding panel, qPCR; LTK; at 10 µM; hits give low values"}, "GAK": {"test_system": "GAK", "conditions": "KINOMEscan 353-kinase binding panel, qPCR, at 10 µM, hits give low values"}, "NEK6": {"test_system": "NEK6", "conditions": "KINOMEscan 353-kinase binding panel, qPCR, at 10 µM, hits give low values"}, "[18]": {"target": "Inhibitor of nuclear factor kappa-B kinase subunit beta (Homo sapiens) (UniProt O14920)", "sequence (O14920 whole entry, looked up)": "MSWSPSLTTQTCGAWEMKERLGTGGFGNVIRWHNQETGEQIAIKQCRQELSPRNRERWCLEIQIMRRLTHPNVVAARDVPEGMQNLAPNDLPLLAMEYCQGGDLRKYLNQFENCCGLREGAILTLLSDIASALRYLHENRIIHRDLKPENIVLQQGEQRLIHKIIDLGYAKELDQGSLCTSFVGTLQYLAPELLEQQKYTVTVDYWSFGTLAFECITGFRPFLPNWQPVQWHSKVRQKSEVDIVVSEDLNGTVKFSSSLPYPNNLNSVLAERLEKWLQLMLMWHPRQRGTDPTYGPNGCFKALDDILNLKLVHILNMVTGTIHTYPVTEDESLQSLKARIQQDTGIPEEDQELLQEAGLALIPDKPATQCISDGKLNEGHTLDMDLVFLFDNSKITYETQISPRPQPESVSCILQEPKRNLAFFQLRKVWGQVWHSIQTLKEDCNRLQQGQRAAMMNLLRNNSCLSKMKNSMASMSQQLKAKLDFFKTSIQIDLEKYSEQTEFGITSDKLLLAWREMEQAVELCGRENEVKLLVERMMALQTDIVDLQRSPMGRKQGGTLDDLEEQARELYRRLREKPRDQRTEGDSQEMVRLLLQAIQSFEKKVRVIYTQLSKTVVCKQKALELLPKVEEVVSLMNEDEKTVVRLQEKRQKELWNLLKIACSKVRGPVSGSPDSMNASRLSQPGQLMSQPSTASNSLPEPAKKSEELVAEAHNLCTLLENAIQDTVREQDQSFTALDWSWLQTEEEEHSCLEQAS", "conditions": "KINOMEscan 353-kinase binding panel, qPCR; IKK-beta; at 10 µM; hits give low values"}, "EPHB1": {"test_system": "EPHB1", "conditions": "KINOMEscan 353-kinase binding panel, qPCR, at 10 µM, hits give low values"}, "ULK1": {"test_system": "ULK1", "conditions": "KINOMEscan 353-kinase binding panel, qPCR, at 10 µM, hits give low values"}}, "note": "The source made the active and inactive calls. No rule for the calls is given here."}
{"smiles": "Cc1cc2nc(NCCCO)n(CC(=O)c3cc(C(C)(C)C)c(O)c(C(C)(C)C)c3)c2cc1C", "values": [{"measurement": "percent of control binding", "setting": "TLK1", "result": 30, "unit": "%"}, {"measurement": "percent of control binding", "setting": "PIK3C2B", "result": "90% (inactive)"}, {"measurement": "percent of control binding", "setting": "[1]", "result": "67% (inactive)"}, {"measurement": "percent of control binding", "setting": "EPHA1", "result": "100% (inactive)"}, {"measurement": "percent of control binding", "setting": "[2]", "result": "100% (inactive)"}, {"measurement": "percent of control binding", "setting": "NEK9", "result": "100% (inactive)"}, {"measurement": "percent of control binding", "setting": "MST4", "result": "100% (inactive)"}, {"measurement": "percent of control binding", "setting": "[3]", "result": "93% (inactive)"}, {"measurement": "percent of control binding", "setting": "DMPK", "result": "93% (inactive)"}, {"measurement": "percent of control binding", "setting": "[4]", "result": "64% (inactive)"}, {"measurement": "percent of control binding", "setting": "[5]", "result": "100% (inactive)"}, {"measurement": "percent of control binding", "setting": "[6]", "result": "98% (inactive)"}, {"measurement": "percent of control binding", "setting": "ERK4", "result": "100% (inactive)"}, {"measurement": "percent of control binding", "setting": "[7]", "result": "100% (inactive)"}, {"measurement": "percent of control binding", "setting": "[8]", "result": "98% (inactive)"}, {"measurement": "percent of control binding", "setting": "[9]", "result": "54% (inactive)"}, {"measurement": "percent of control binding", "setting": "EPHA4", "result": "86% (inactive)"}, {"measurement": "percent of control binding", "setting": "[10]", "result": "100% (inactive)"}, {"measurement": "percent of control binding", "setting": "ACVRL1", "result": "100% (inactive)"}, {"measurement": "percent of control binding", "setting": "NEK1", "result": "91% (inactive)"}, {"measurement": "percent of control binding", "setting": "PIK3CD", "result": "65% (inactive)"}, {"measurement": "percent of control binding", "setting": "[11]", "result": "100% (inactive)"}, {"measurement": "percent of control binding", "setting": "[12]", "result": "87% (inactive)"}, {"measurement": "percent of control binding", "setting": "[13]", "result": "47% (inactive)"}, {"measurement": "percent of control binding", "setting": "MST1", "result": "90% (inactive)"}, {"measurement": "percent of control binding", "setting": "[14]", "result": "100% (inactive)"}, {"measurement": "percent of control binding", "setting": "[15]", "result": "100% (inactive)"}, {"measurement": "percent of control binding", "setting": "[16]", "result": "100% (inactive)"}, {"measurement": "percent of control binding", "setting": "[17]", "result": "92% (inactive)"}, {"measurement": "percent of control binding", "setting": "GAK", "result": "90% (inactive)"}, {"measurement": "percent of control binding", "setting": "NEK6", "result": "93% (inactive)"}, {"measurement": "percent of control binding", "setting": "[18]", "result": "78% (inactive)"}, {"measurement": "percent of control binding", "setting": "EPHB1", "result": "95% (inactive)"}, {"measurement": "percent of control binding", "setting": "ULK1", "result": "100% (inactive)"}]}
